Assay results from BindingDB's records for doi:10.1016/j.bmcl.2004.10.085 (Bristol-Myers Squibb Pharmaceutical Research Institute, 2004).

biological target: T1, Androgen receptor (Homo sapiens, UniProt P10275); assay: Inhibition of androgen dependent human prostate cancer cell […] proliferation
T1 sequence (P10275 whole entry): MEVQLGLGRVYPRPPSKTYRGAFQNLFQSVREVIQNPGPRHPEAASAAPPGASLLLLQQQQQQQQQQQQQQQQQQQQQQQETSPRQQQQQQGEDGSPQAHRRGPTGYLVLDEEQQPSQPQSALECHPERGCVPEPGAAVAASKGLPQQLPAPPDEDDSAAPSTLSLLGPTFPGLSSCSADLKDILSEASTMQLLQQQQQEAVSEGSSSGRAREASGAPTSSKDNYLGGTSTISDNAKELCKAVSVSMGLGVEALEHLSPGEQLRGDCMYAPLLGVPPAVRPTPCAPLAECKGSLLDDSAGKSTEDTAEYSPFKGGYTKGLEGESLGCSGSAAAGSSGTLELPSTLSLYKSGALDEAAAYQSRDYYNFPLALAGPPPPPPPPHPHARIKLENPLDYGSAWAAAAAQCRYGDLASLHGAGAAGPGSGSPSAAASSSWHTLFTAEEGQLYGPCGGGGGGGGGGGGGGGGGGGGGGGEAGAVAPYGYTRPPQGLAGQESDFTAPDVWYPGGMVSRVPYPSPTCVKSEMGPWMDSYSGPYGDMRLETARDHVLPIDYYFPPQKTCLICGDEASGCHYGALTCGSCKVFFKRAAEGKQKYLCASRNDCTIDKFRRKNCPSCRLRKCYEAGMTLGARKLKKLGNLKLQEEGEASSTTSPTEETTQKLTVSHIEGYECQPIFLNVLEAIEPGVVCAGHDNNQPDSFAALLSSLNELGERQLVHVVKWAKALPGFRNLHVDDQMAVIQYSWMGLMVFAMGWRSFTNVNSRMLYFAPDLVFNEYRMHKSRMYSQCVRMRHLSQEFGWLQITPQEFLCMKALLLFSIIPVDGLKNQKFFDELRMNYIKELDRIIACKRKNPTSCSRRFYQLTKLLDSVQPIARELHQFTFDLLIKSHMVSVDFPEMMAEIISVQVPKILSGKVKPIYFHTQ

Question: CN1C(=O)C2C=CC1c1c2c(O)n(-c2ccc([N+](=O)[O-])c3ccccc23)c1O [(2R,6R)-8-Methyl-4-(4-nitro-naphthalen-1-yl)-4,8-diaza-tricyclo[5.2.2.0*2,6*]undec-10-ene-3,5,9-trione] was tested. Which IC50 did it give?
Answer: Its IC50 is 8460 nM.

Question: For Oc1c2c(c(O)n1-c1cccc(C(F)(F)F)c1)C1C=CC2CC1 [(2R,6S)-4-(3-Trifluoromethyl-phenyl)-4-aza-tricyclo[5.2.2.0*2,6*]undec-8-ene-3,5-dione], which IC50 is on record?
Answer: The IC50 was 0.4 nM.

Question: For Oc1c2c(c(O)n1-c1cccc(C(F)(F)F)c1)C1C=CC2[C@H]2C[C@@H]12 [(2R,6S,8S,10R)-4-[3-(trifluoromethyl)phenyl]-4-azatetracyclo[5.3.2.0^{2,6}.0^{8,10}]dodec-11-ene-3,5-dione], which IC50 is on record?
Answer: The IC50 was 148 nM.

Question: Which IC50 does the source give for Oc1c2c(c(O)n1-c1ccc(Cl)c(Cl)c1)C1C=CC2C1 [(2R,6S)-4-(3,4-Dichloro-phenyl)-4-aza-tricyclo[5.2.1.0*2,6*]dec-8-ene-3,5-dione] here?
Answer: The IC50 was 180 nM.

Question: How did the IC50 turn out when Oc1c2c(c(O)n1-c1cccc(C(F)(F)F)c1)C1CCCC2CC1 [(2S,6R)-4-(3-Trifluoromethyl-phenyl)-4-aza-tricyclo[5.3.2.0*2,6*]dodecane-3,5-dione] was run?
Answer: The IC50 was 179 nM.
